# Results as given in patent publication US11040028B2, “Penicinotam derivative, preparation method and use thereof” (OCEAN UNIVERSITY OF CHINA, priority 2017, dated 2021).
# Columns and labels:
# Type in all cases: cell-based
# [1] = system: human lung fibroblasts HFL1; assay: Anti-fibrosis activity test: inhibition of proliferation of human lung fibroblasts HFL1 (CCK-8); settings: Homo sapiens, HFL1, 48 h, human lung fibroblasts HFL1, CCK-8, 48 hours
# Procedure: (§1) BHK-21 cells in exponential growth phase were selected. After the fusion growth reached 85-95%, normal passage method was utilized to digest and collect the cells, followed by cell counting and adjusting the cell density to 2×10^4 cells/mL. The cells were seeded into 96-well plates, 100 μL/well, and were incubated under the condition of 5% CO2 at 37° C.
# (§2) The supernatant was removed after the cells had adhered to the wall for 24 hours. The culture solution containing the prepared compounds at different concentrations were added to the wells, 100 μL/well, each concentration in triplicate. The cells were subcultured for 48 hours after administration. Commercially available pirfenidone was employed as the positive control.
# (§3) 10 μL of CCK-8 solution ( 1/10 of the volume of the culture solution) was added to each well 48 hours after the administration, and incubated for 2 hours. The absorbance (A) of each well was determined by a microplate reader at 450 nm wavelength. The inhibition rate against cell proliferation for each compound was calculated based on A, wherein inhibition rate against cell proliferation (inhibition ratio, IR)=(1−value of experimental group (Ai)/value of blank control group (Ao))×100% and the IC50 value of each compound was calculated by the data processing software.
# (§4) Using the same protocol for the cell experiments, the inhibitory activity of the test compounds against the proliferation of human lung fibroblasts HFL1, human hepatic stellate cells LX-2, human fibrosarcoma cells HT-1080, human dermal fibroblasts CCC-ESF-1, human embryonic lung fibroblast IMR-90, cardiac fibroblast RAT-iCell-C002 was assayed.
# [2] = system: human dermal fibroblasts CCC-ESF-1; assay: Anti-fibrosis activity test: inhibition of proliferation of human dermal fibroblasts CCC-ESF-1 (CCK-8); settings: Fibroblast; human dermal fibroblasts CCC-ESF-1, CCK-8, 48 hours
# Procedure: as §1, §2, §3, §4
# [3] = system: human fibrosarcoma cells HT-1080; assay: Anti-fibrosis activity test: inhibition of proliferation of human fibrosarcoma cells HT-1080 (CCK-8); settings: Homo sapiens, HT-1080, 48 h, human fibrosarcoma cells HT-1080, CCK-8, 48 hours
# Procedure: as §1, §2, §3, §4
# [4] = system: cardiac fibroblast RAT-iCell-C002; assay: Anti-fibrosis activity test: inhibition of proliferation of cardiac fibroblast RAT-iCell-C002 (CCK-8); settings: Cardiac fibroblast, 48 h, cardiac fibroblast RAT-iCell-C002, CCK-8, 48 hours
# Procedure: as §1, §2, §3, §4
# [5] = system: human hepatic stellate cells LX-2; assay: Anti-fibrosis activity test: inhibition of proliferation of human hepatic stellate cells LX-2 (CCK-8); settings: Homo sapiens, 48 h, human hepatic stellate cells LX-2, CCK-8, 48 hours
# Procedure: as §1, §2, §3, §4
# [6] = system: human embryonic lung fibroblast IMR-90; assay: Anti-fibrosis activity test: inhibition of proliferation of human embryonic lung fibroblast IMR-90 (CCK-8); settings: human embryonic lung fibroblast IMR-90, CCK-8, 48 hours
# Procedure: as §1, §2, §3, §4
# [7] = system: BHK-21 cells; assay: Anti-fibrosis activity test: inhibition of BHK-21 cell proliferation (CCK-8); settings: Mesocricetus auratus, BHK-21, 48 h, CCK-8, 48 hours after administration
# Procedure: as §1, §2, §3
# [8] = system: mouse macrophages (RAW264.7); assay: Lipopolysaccharide-induced NO secretion in macrophages (Griess); settings: Mus musculus, RAW264.7, 24 h, RAW264.7, LPS 1 μg/ml, a/b isomers given as first/second symbol, read-out: IC50 (μM), inhibition of lipopolysaccharide-induced NO secretion in macrophages
# Procedure: The effects of the compounds of the present application on the lipopolysaccharide-induced NO secretion in macrophage was tested Principle: Anti-inflammatory drug activity screening is to detect the inhibitory effect of compounds on NO production in the mouse macrophages (RAW264.7). When immune cells are stimulated by microbial endotoxin, inflammatory mediators, etc., a large amount of induced NO synthase (iNOS) is produced, and thus NO is generated for immune response. Accordingly, the inhibition of NO production can serve as a direct indicator of the anti-inflammatory activity of the compound. The activity of the compound to inhibit NO production at the cellular level is directly evaluated in the abovementioned test model, thereby reflecting the anti-inflammatory activity of the compound. In this experiment, the content of NO in the medium was detected by Gris kit (Molecular probes, G-7921). Macrophages (Raw264.7) were cultured in DMEM medium containing 10% fetal bovine serum, with the cell concentration adjusted. The cells were seeded in 24-well cell culture plates, cultured in an incubator, and the test samples in different concentrations were added every other day. The blank medium was used as a blank control, and commercially available indomethacin and resveratrol were employed as positive controls. After the addition of lipopolysaccharide (LPS, 1 μg/ml), incubation was performed for 24 hours. Then the supernatant culture solution was taken, to […] reagent was added, and the absorbance value was measured by a microplate reader at 548 nm. Inhibition rate=([…])×100%.
IC50 [3],IC50 [8],Compound,IC50 [1],IC50 [2],IC50 [4],IC50 [5],IC50 [6],IC50 [7]
0.05 to 5 mM,–,"N#Cc1ccccc1-c1ccc(Cn2c3c(c(=O)c4cc(C#N)c(N5CCNCC5)cc42)C(=O)n2cccc2-3)cc1 [Compound 644a, 4-((2′-Cyano-[1,1′-biphenyl]-4-yl)methyl)-9,10-dioxo-6-(piperazin-1-yl)-4,10-dihydro-9H-pyrrolizino[1,2-b]quinoline-7-carbonitrile]",0.05 to 5 mM,0.05 to 5 mM,0.05 to 5 mM,0.05 to 5 mM,0.05 to 5 mM,0.05 to 5 mM
0.05 to 5 mM,–,"N#Cc1cc2c(OCc3ccc(Cl)cc3)c3c(nc2cc1N1CCNCC1)-c1cccn1C3=O [Compound 640b, 9-((4-chlorobenzyl)oxy)-10-oxo-6-(piperazin-1-yl)-10H-pyrrolizino[1,2-b]quinoline-7-carbonitrile]",0.05 to 5 mM,0.05 to 5 mM,0.05 to 5 mM,0.05 to 5 mM,0.05 to 5 mM,0.05 to 5 mM
0.05 to 5 mM,–,"O=C1c2c(nc3cc(N4CCNCC4)cc(F)c3c2OCc2ccc(Cl)cc2)-c2cccn21 [Compound 647b, 9-((4-chlorobenzyl)oxy)-8-fluoro-6-(piperazin-1-yl)-10H-pyrrolizino[1,2-b]quinolin-10-one]",0.05 to 5 mM,0.05 to 5 mM,0.05 to 5 mM,0.05 to 5 mM,0.05 to 5 mM,0.05 to 5 mM
0.05 to 5 mM,–,"O=C1c2c(nc3cc(N4CCNCC4)c(F)cc3c2OCc2ccc(Br)cc2)-c2cccn21 [Compound 633b, 9-((4-bromobenzyl)oxy)-7-fluoro-6-(piperazin-1-yl)-10H-pyrrolizino[1,2-b]quinolin-10-one]",0.05 to 5 mM,0.05 to 5 mM,0.05 to 5 mM,0.05 to 5 mM,0.05 to 5 mM,0.05 to 5 mM
0.05 to 5 mM,–,"O=C1c2c(nc3cc(Cl)ccc3c2OCc2ccccc2Cl)-c2cccn21 [Compound 510b, 6-chloro-9-((2-chlorobenzyl)oxy)-10H-pyrrolizino[1,2-b]quinolin-10-one]",0.05 to 5 mM,0.05 to 5 mM,0.05 to 5 mM,0.05 to 5 mM,0.05 to 5 mM,0.05 to 5 mM
0.05 to 5 mM,–,"N#Cc1cc2c(=O)c3c(n(Cc4ccc(Cl)cc4)c2cc1N1CCNCC1)-c1cccn1C3=O [Compound 640a, 4-(4-Chlorobenzyl)-9,10-dioxo-6-(piperazin-1-yl)-4,10-dihydro-9H-pyrrolizino[1,2-b]quinoline-7-carbonitrile]",0.05 to 5 mM,0.05 to 5 mM,0.05 to 5 mM,0.05 to 5 mM,0.05 to 5 mM,0.05 to 5 mM
0.05 to 5 mM,–,"O=C1c2c(n(Cc3ccccc3Cl)c3cc(Cl)ccc3c2=O)-c2cccn21 [Compound 510a, 6-Chloro-4-(2-chlorobenzyl)-9H-pyrrolizino[1,2-b]quinoline-9,10(4H)-dione]",0.05 to 5 mM,0.05 to 5 mM,0.05 to 5 mM,0.05 to 5 mM,0.05 to 5 mM,< 0.05 mM
–,10 to 50 µM,"COc1ccc2c(c1)c(CC(=O)O)c(C)n2C(=O)c1ccc(Cl)cc1 [indomethacin, reference compound]",–,–,–,–,–,–
0.05 to 5 mM,–,"N#Cc1ccc(Cn2c3c(c(=O)c4cc(F)c(N5CCNCC5)cc42)C(=O)n2cccc2-3)cc1 [Compound 635a, 4-((7-Fluoro-9,10-dioxo-6-(piperazin-1-yl)-9H-pyrrolizino[1,2-b]quinolin-4(10H)-yl)methyl)benzonitrile]",0.05 to 5 mM,0.05 to 5 mM,0.05 to 5 mM,0.05 to 5 mM,0.05 to 5 mM,0.05 to 5 mM
